In patent publication US20220348615A1, “PRODUCTION OF BACTERIOCINS” (priority 2021, published 2022):
“And” between values parts separate entries of the source, which are not always exact repeats. Equal values may be shown once.

How the values were obtained:
[1] = test system: L. lactis NZ9000/pNZ-Pnis-mCherry^Lla; assay: Nisin sensor strain mCherry fluorescence assay; type: cell-based, Lactococcus lactis; conditions: 96-well microtiter plate assay
Procedure: (B) A photo of the bacterial pellet taken after growth in GM17 medium containing 10 ng/ml nisin.
Black lines indicate absorbance at 214 nm in milli arbitrary units (mAU) and grey lines % of solution B in the elation buffer. Broken lines indicate the boundaries of the peak fractions collected for further analysis. (B) L. lactis NZ9000/pNZ-Pnis-mCherry^Lla was used to assay presence of nisin in different samples during purification of ammonium sulphate-precipitated supernatants of C. glutamicum CR099/pXMJ-nisZBTC^opt (SN: plain culture supernatant; precip: ammonium sulphate precipitated supernatant proteins; IEX: peak fraction of ion exchange chromatography; RP peak fraction of reverse phase chromatography. pos: 10 ng/ml nisin; +/−: activation by trypsin).
The sensitivity of the spot-on-lawn assay using C. glutamicum CR099 as an indicator strain is very low. […] The strain L. lactis NZ9000/pNZ-Pnis-mCherry^Lla contains the NisRK two-component system and harbours a pNZ-derives plasmid for expression the red-fluorescent protein mCherry from the Pnis promoter (FIG. 11A), which is activated by NisR in a strictly nisin-dependent manner. In this construct, the coding sequence of the mCherry protein is optimized for codon usage of L. lactis. The respective sensor strain results in reddish coloured bacteria after o/N growth in the presence of 10 ng mL^−1 (FIG. 11B). […]

[2] = test system: C. glutamicum CR099; assay: Resistance of C. glutamicum CR099 to antimicrobial peptides, endpoint growth in 96-well microtiter plates; type: cell-based, Corynebacterium glutamicum
Procedure: Values are mean±standard deviation of n=4-7 independent experiments. (B) Growth of C. glutamicum CR099 in standard batch culture in 2xTY medium with 2% Glc in the presence (+PA-1) or absence (−PA-1) of 2.0 μg/mL pediocin. Values are mean±standard deviation of n=4 independent experiments. Growth rates were calculated during exponential growth phase. (C) Growth inhibition of L. monocytogenes EGDe::pIMK2 by supernatants of C. glutamicum CR099 in 2xTY medium with 2% Glc plus 2 μg/mL pure pediocin (+CR099). Supernatants were collected during the experiment shown in (B) at the indicated time-points. As controls, pediocin was incubated under the same conditions in sterile medium (−CR099). Values are OD600 of the indicator strain L. monocytogenes EGDe in a growth assay at the indicated dilutions of the samples and are mean±standard deviation of n=3 independent experiments. […]
The receptors for bacteriocins of the pediocin family on target organisms are the IIC and IID subunits of a sub-family of mannose-specific phosphotransferase systems (PTS^Man; PMID: 19477899). […] To corroborate this assumption, the resistance of C. glutamicum CR099 against different antimicrobial peptides was determined using an endpoint measurement of growth in 96-well microtiter plates (FIG. 2A).

[3] = test system: L. monocytogenes EGDe::pIMK2; assay: Pediocin activity remaining in culture supernatant during C. glutamicum CR099 cultivation; type: cell-based, Listeria monocytogenes
Procedure: (§1) Values are mean±standard deviation of n=4-7 independent experiments. (B) Growth of C. glutamicum CR099 in standard batch culture in 2xTY medium with 2% Glc in the presence (+PA-1) or absence (−PA-1) of 2.0 μg/mL pediocin. Values are mean±standard deviation of n=4 independent experiments. Growth rates were calculated during exponential growth phase. (C) Growth inhibition of L. monocytogenes EGDe::pIMK2 by supernatants of C. glutamicum CR099 in 2xTY medium with 2% Glc plus 2 μg/mL pure pediocin (+CR099). Supernatants were collected during the experiment shown in (B) at the indicated time-points. As controls, pediocin was incubated under the same conditions in sterile medium (−CR099). Values are OD600 of the indicator strain L. monocytogenes EGDe in a growth assay at the indicated dilutions of the samples and are mean±standard deviation of n=3 independent experiments. In all graphs, the bottom and top lines indicate OD600 of the positive (i.e. complete inhibition of growth) or negative (i.e. in the absence of an antimicrobial peptide), respectively. The broken middle lines represent growth inhibition of 50%, i.e. the threshold to calculate bacteriocin units.
Additionally, activity of pediocin was measured in the culture supernatant at select timepoints during the cultivation. […] The observed reduction in activity was therefore considered to be related to adsorption of the positively charged pediocin to the negative surface of bacteria and, at later timepoints, to oxidative inactivation.

[4] = test system: C. glutamicum CR099; assay: Growth of C. glutamicum CR099 in standard batch culture with pediocin; type: cell-based, Corynebacterium glutamicum; conditions: 2 μg mL^−1 pediocin, baffled Erlenmeyer flask, 2xTY with 2% Glc
Procedure: as §1
By contrast, C. glutamicum CR099 was able to grow in the presence of at least 12.5 μg mL^−1 pediocin PA-1.

[5] = test system: L. innocua LMG2785::pIMK2; assay: Microtiter plate growth inhibition assay, L. innocua indicator; type: cell-based, Listeria innocua; conditions: serial 2-fold dilutions of pediocin standard
Excerpt: (§2) (B) Growth inhibition of L. monocytogenes EGDe::pIMK2 by supernatants of P. acidilactici 347 (Paci) collected in early stationary growth phase at the indicated dilution. Values are mean±standard deviation of at least n=3 independent experiments per condition. Dilution series sterile H2O (A) or MRS medium (B) were used as negative controls. Hatched bars indicate growth of the indicator strain without addition of diluted supernatant or pediocin, i.e. maximum growth. The bottom and top lines indicate OD600 of the positive (i.e. complete inhibition of growth) or negative (i.e. in the absence of an antimicrobial peptide), respectively. The broken middle line represents growth inhibition of 50%, i.e. the threshold to calculate bacteriocin units.
2h after inoculation Glc (2% w/v) and IPTG (0.1 mM) were added to induce production of pediocin (B) Growth inhibition of L. innocua LMG2785::pIMK2 by different dilutions of supernatants of C. glutamicum CR099/pEKEx2-pedACD (pedACD) collected at the indicated timepoints during the growth experiment shown in (A). All values are mean±standard deviation of n=3 independent experiments. […]
(§3) To validate the assay, anti-microbial activity in supernatants of P. acidilactici 347, a natural producer of pediocin was measured following growth in MRS medium to early stationary growth phase (FIG. 1B). […]

[6] = test system: L. monocytogenes EGDe::pIMK2; assay: Microtiter plate growth inhibition assay, L. monocytogenes indicator; type: cell-based, Listeria monocytogenes; conditions: serial 2-fold dilutions of pediocin standard
Excerpt: as §2
Pediocin PA-1 is a bacteriocin with potent antimicrobial activity against a range of Gram-positive microorganisms including important human pathogens such as Listeria monocytogenes. As a first step towards recombinant production of pediocin PA-1, a growth-dependent assay was established using L. monocytogenes EGDe::pIMK2 or L. innocua LMG2785::pIMK2 as indicator strains, and commercially available, purified pediocin (FIG. 1A). […]
as §3

Substance: nisin
- limit of detection of the sensor strain for active nisin [1]: 0.2 to 0.5 ng/mL and 0.25 to 0.5 ng/mL
- concentration above which growth of C. glutamicum CR099 is inhibited ([2]; preliminary experiments): > 100 ng/mL

Substance: pediocin PA-1 (KYYGNGVTCGKHSCSVDWGKATTCIINNGAMAWATGGHQGNHKC; listed as Pediococcus acidilactici) [commercially available, purified Class IIA bacteriocin]
- pediocin activity in culture supernatant, initial ([3]; 2 μg/mL pediocin in growing C. glutamicum CR099 culture, start): 2560 BU mL^−1
- pediocin activity after 24 hours in control incubation ([3]; 2xTY without bacteria, 24 hours): the same reduction was observed
- pediocin activity in culture supernatant after slight initial reduction ([3]; growing C. glutamicum CR099 culture, stable for several hours): 1280 BU mL^−1
- pediocin activity in culture supernatant after 24 hours ([3]; in the presence of C. glutamicum CR099, 24 hours): 160 BU mL^−1
- effect on final optical density and growth rate [4]: did not affect final optical density and growth rate
- minimal concentration to completely inhibit growth of the indicator strain [5]: 39 ng/mL
- concentration in the presence of which C. glutamicum CR099 was able to grow ([2]; 96-well microtiter plates, endpoint growth): at least 12.5 μg mL^−1
- minimal concentration to completely inhibit growth of the indicator strain [6]: 39 ng/mL
